Experimental findings from US9550738B2, “Bicyclic compounds as kinases inhibitors” (HangzhouDeRenYuCheng Biotechnology Ltd, priority 2012, dated 2017) are described below.

In assay [1] the target is T1, Btk (Homo sapiens, UniProt Q06187). As to the kind of experiment: In vitro Btk competition binding assay (kinase-tagged T7 phage, liganded affinity beads, qPCR readout). The arrangement: made in house; host or cells: E. coli BL21-derived host (T7 phage display) or HEK-293 cells. The note with it: 11-point 3-fold serial dilution, top concentration 10,000 nM, Hill slope -1. The procedure:
An in vitro assay which determines the ability of a test compound to inhibit Btk.
Kinase-tagged T7 phage strains were prepared in an E. coli host derived from the BL21 strain. E. coli were grown to log-phase and infected with T7 phage and incubated with shaking at 32° C. until lysis. The lysates were centrifuged and filtered to remove cell debris. The remaining kinases were produced in HEK-293 cells and subsequently tagged with DNA for qPCR detection. Streptavidin-coated magnetic beads were treated with biotinylated small molecule ligands for 30 minutes at room temperature to generate affinity resins for kinase assays. The liganded beads were blocked with excess biotin and washed with blocking buffer (SeaBlock (Pierce), 1% BSA, 0.05% Tween 20, 1 mM DTT) to remove unbound ligand and to reduce non-specific binding. Binding reactions were assembled by combining kinases, liganded affinity beads, and test compounds in 1× binding buffer (20% SeaBlock, 0.17× PBS, 0.05% Tween 20, 6 mM DTT). All reactions were performed in polystyrene 96-well plates in a final volume of 0.135 ml. The assay plates were incubated at room temperature with shaking for 1 hour and the affinity beads were washed with wash buffer (1× PBS, 0.05% Tween 20). The beads were then re-suspended in elution buffer (1× PBS, 0.05% Tween 20, 0.5 μM non-biotinylated affinity ligand) and incubated at room temperature with shaking for 30 minutes. The kinase concentration in the eluates was measured by qPCR.
An 11-point 3-fold serial dilution of each test compound was prepared in 100% DMSO at 100× final test concentration and subsequently diluted to 1× in the assay (final DMSO concentration=1%). Kds were determined using a compound top concentration=10,000 nM. If the initial Kd determined was <0.5 nM (the lowest concentration tested), the measurement was repeated with a serial dilution starting at a lower top concentration.
Binding constants (Kds) were calculated with a standard dose-response curve using the Hill equation: Response=Background+(Signal−Background)/(1+(Kd^Hill Slope/Dose^Hill Slope)). The Hill Slope was set to −1. Curves were fitted using a non-linear least square fit with the Levenberg-Marquardt algorithm.
The following Table 1 lists compounds representative of the invention and their corresponding inhibitory activity against Btk.
(In qPCR the cycle at which signal appears reflects the starting amount.)

The target of assay [2] is T1, Btk. The assay is described as follows: Btk Ramos Cellular Assay (phosphorylation of the Btk substrate PLC gamma.2 after anti-IgM stimulation). Type of assay: cell-based. The conditions noted are these: Ramos cells, 1 hour with compound at 1, 0.1, 0.01 or 0.001 μM, goat F(ab')2 Anti-Human IgM stimulation, blot for PLC gamma.2 phosphorylation; read-out: inhibition of Btk signaling in Ramos cellular assay, IC50. The procedure: Ramos cells were grown in suspension in T225 flasks, spun down, resuspended in 50 mL serum-free media and incubated for 1 hour. Compound was added to Ramos cells in serum free media to a final concentration of 1, 0.1, 0.01, or 0.001 μM. Ramos cells were incubated with compound for 1 hour, washed again and resuspended in 100 μL serum-free media. Cells were then stimulated with 1 μg of goat F(ab′)2 Anti-Human IgM and incubated on ice for 10 minutes to activate B cell receptor signaling pathways. After 10 minutes, the cells were washed once with PBS and then lysed on ice with Invitrogen Cell Extraction buffer. Sixteen μg total protein from lysates was loaded on gels and blots were probed for phosphorylation of the Btk substrate PLC gamma.2.

T1 sequence (Q06187 whole entry, species assumed): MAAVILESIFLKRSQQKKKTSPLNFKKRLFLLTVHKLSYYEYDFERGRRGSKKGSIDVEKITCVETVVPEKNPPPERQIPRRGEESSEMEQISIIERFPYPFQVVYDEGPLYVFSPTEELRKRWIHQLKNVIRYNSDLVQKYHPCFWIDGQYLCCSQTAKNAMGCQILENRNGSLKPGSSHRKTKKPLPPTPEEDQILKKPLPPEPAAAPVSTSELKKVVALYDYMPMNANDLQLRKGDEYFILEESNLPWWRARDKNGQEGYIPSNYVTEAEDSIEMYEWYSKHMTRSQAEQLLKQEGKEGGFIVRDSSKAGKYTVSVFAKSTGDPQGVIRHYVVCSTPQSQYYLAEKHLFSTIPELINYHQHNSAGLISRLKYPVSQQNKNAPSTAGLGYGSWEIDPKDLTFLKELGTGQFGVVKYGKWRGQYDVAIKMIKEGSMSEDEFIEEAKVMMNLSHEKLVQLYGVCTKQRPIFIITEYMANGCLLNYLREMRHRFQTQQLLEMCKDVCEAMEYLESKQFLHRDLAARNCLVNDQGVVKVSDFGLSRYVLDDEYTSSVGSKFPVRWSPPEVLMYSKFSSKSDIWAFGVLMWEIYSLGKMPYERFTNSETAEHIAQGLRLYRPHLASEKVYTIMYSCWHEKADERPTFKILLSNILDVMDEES

For orientation: Kd means the constant that tells how readily two partners part at equilibrium. For orientation: IC50 means the point on the concentration scale where inhibition reaches its midpoint. As to `COc1cc2ncnc(Nc3ccc(Oc4ccccc4)cc3)c2cc1NC(=O)/C=C/CN(C)C` [Compound 27, (E)-4-(dimethylamino)-N-(7-methoxy-4-((4-phenoxyphenyl)amino)quinazolin-6-yl)but-2-enamide], at Btk [1], the Kd turned out to be 2.2 nM. For the same compound, on Btk [2], the IC50 was < 100 nM.
Compound `CCOc1cc2ncnc(Nc3ccc(Oc4ccccc4)cc3)c2cc1NC(=O)/C=C/CN(C)C` [Compound 31, (E)-4-(dimethylamino)-N-(7-ethoxy-4-((4-phenoxyphenyl)amino)quinazolin-6-yl)but-2-enamide] showed a Kd at Btk [1] of 2.6 nM. Also, the half-maximal inhibitory concentration (IC50) at Btk [2] is < 100 nM.
In the case of `CN(C)C/C=C/C(=O)Nc1cc2c(Nc3ccc(Oc4ccccc4)cc3)ncnc2cc1O[C@H]1CCOC1` [Compound 35, (S,E)-4-(dimethylamino)-N-(4-((4-phenoxyphenyl)amino)-7-((tetrahydrofuran-3-yl)oxy)quinazolin-6-yl)but-2-enamide], the Kd on Btk [1] was < 100 nM.
At Btk [1], `C=CC(=O)Nc1cc2c(Nc3ccc(Oc4ccccc4)cc3)ncnc2cc1OC` [Compound 36, N-(7-methoxy-4-((4-phenoxyphenyl)amino)quinazolin-6-yl)acrylamide] came in with a Kd of 2.3 nM.
Consider `C=CC(=O)Nc1cc2c(Nc3ccc(Oc4ccccc4)cc3)ncnc2cc1OCC` [Compound 37, N-(7-ethoxy-4-(4-phenoxyphenylamino)quinazolin-6-yl)acrylamide], for which, at Btk [1], the Kd is 1.2 nM.
The same measure, in the same setting: under `C=CC(=O)Nc1cc2c(Nc3ccc(Oc4ccccc4)cc3)ncnc2cc1O[C@H]1CCOC1` [Compound 38, (S)-N-(4-((4-phenoxyphenyl)amino)-7-((tetrahydrofuran-3-yl)oxy)quinazolin-6-yl)acrylamide] stands < 100 nM.
